Results on four molecules are retold here after US5714499A, “3-amino-2-oxo-1-piperidineacetic derivatives containing an arginine mimic as enzyme inhibitors” (Corvas International, Inc., priority 1994, dated 1998).

Each structure is given as a SMILES string. Like-named read-outs stand apart in the source and are kept apart here.

The target of one data set is plasmin (Homo sapiens, UniProt P00747). The data set can be described thus: Plasmin assay (specificity determination). Type of data set: biochemical. Particulars: maximal concentration 25,000 nM, mean of at least two independent experiments. As to the method:
Plasmin catalytic activity was determined using the chromogenic substrate, S-2251 [D-valyl-L-leucyl-L-lysine-p-nitroanilide], which was obtained from Kabi Diagnostica.

The test system of data set [1] is rat plasma clotting (APTT). The data set can be described thus: Ex vivo anticoagulant effect, APTT in citrated rat plasma. The text has this: (§1) The control clotting times (0 inhibitor) for rat and human plasma were 19 seconds and 29 seconds, respectively. The concentration of BzlSO2 -norVal(cyclo)-Gly-Ala(3-guanPip)al which caused a doubling of the control clotting time in rat and human plasma was 12.7 micromolar and 9.1 micromolar, respectively. The data is the mean of two independent determinations.
(§2) Fresh frozen citrated pooled normal human plasma was obtained from George King Biomedical, Overland Park, Kans. Pooled normal rat plasma was prepared from citrated whole blood collected from anesthetized rats using standard procedures. The plasma was flash frozen and stored at -80° C. until use. Measurements APTT was made using the Coag-A-Mate RA4 automated coagulometer (General Diagnostics, Organon Technica, Oklahoma City, Okla.) using the Automated APTT reagent (Organon Technica, Durham, N.C.) as the initiator of clotting according to the manufacturers instructions. The assay was conducted by making a series of dilution's of Isomer B in rapidly thawed plasma followed by adding 200 microliters to the wells of the assay carousel.

The subject of data set [2] is human plasma clotting (APTT). The data set can be described thus: Ex vivo anticoagulant effect, APTT in citrated human plasma.
Excerpt: as §1, §2

For data set [3], the system named is FeCl3-induced occlusive thrombus in rat carotid artery. The experiment in a line: Rat model of FeCl3-induced platelet-dependent arterial thrombosis. Format: in vivo. Conditions: for Incidence of Occlusion: single intravenous bolus 5 minutes before FeCl3, n = 6, 60 minutes, saline 6/6; for ED50: Rattus norvegicus, read-out: ED50 for thrombus prevention in the FeCl3 model of arterial thrombosis. The text has this: Kurz, K. D., Main, B. W., and Sandusky, G. E., Thromb. […] In this model a platelet-rich, occlusive thrombus is formed in a segment of the rat carotid artery treated locally with a fresh solution of FeCl3 absorbed to a piece of filter paper. The FeCl3 is thought to diffuse into the treated segment of artery and causes de-endothelialization of the affected vessel surface. […] The effect of a test compound on the incidence of occlusive thrombus formation following the application of the FeCl3 is monitored by ultrasonic flowtometry and is used as the primary end point. The use of flowtometry to measure carotid artery blood flow, is a modification of the original procedure in which thermal detection of clot formation was employed. Kurz, K. D., Main, B. W., and Sandusky, G. E., Thromb.
The animals were prepared, anesthetized with Nembutal followed by the insertion of catheters for blood pressure monitoring, drug and anesthesia delivery. The left carotid artery was isolated by making a midline cervical incision followed by blunt dissection and spreading techniques to separate a 2 cm segment of the vessel from the carotid sheath. A silk suture is inserted under the proximal and distal ends of the isolated vessel to provide clearance for the placement of a ultrasonic flow probe (Transonic) around the proximal end of the vessel. The probe is then secured with a stationary arm.
Following surgery the animals were randomized in either a control (saline) or treatment group with test compound (Isomer B) with at least 6 animals per group per dose. The test compound was administered as a single intravenous bolus at the doses outlined in Table 3 after placement of the flow probe and 5 minutes prior to the thrombogenic stimulus. […] Blood pressure, blood flow, heart rate, and respiration were monitored for 60 minutes.
The incidence of occlusion (defined as the attainment of zero blood flow) was recorded as the primary end point and as a measure of the antithrombotic efficacy of Isomer B.

Data set [4] addresses T1, human alpha-thrombin (Homo sapiens, UniProt P00734). Particulars: Table 4, human alpha-thrombin.
Description: Enzyme activity was determined using the chromogenic substrate Pefachrome t-PA (CH3 SO2 -D-hexahydrotyrosine-glycyl-L-Arginine-p-nitroanilide), obtained from Pentapharm Ltd. The substrate was reconstituted in deionized water prior to use. Purified human alpha-thrombin (3000U/mg specific activity) was obtained from Enzyme Research Laboratories, Inc. The buffer used for all assays was HBSA (10 mM HEPES, pH 7.5, 150 mM sodium chloride, 0.1%, bovine serum albumin).
Velocities of chromogenic substrate hydrolysis which occurred over 40 min was measured by the change in absorbance at 405 nm using a Thermo Max® Kinetic Microplate Reader. […] The extent of substrate hydrolysis was less than 5% over the course of this assay.
Data set [5] deals with T1, human alpha-thrombin. The experiment in a line: biochemical.
Description: The buffer used for all assays was HBSA (10 mM HEPES, pH 7.5, 150 mM sodium chloride, 0.1% bovine serum albumin). […] Following a 30-minute incubation at ambient temperature, 50 microliters of the substrate at the concentrations specified below, was added to the wells yielding a final total volume of 200 microliters. The initial velocity of chromogenic substrate hydrolysis was measured by the change in absorbance at 405nm using a Thermo Max® Kinetic Microplate Reader over a 5 minute period in which less than 5% of the added substrate was utilized.
Thrombin catalytic activity was determined using the chromogenic substrate Pefachrome t-PA (CH3 SO2 -D-hexahydrotyrosine-glycyl-L-arginine-p-nitroanilide, obtained from Pentapharm Ltd.). The substrate was made up in deionized water followed by dilution in HBSA prior to the assay in which the final concentration was 300 micromolar (about 5-times Km). Purified human alpha-thrombin was obtained from Enzyme Research Laboratories, Inc. The enzyme was diluted into HBSA prior to the assay in which the final concentration was 0.25 nM.
For the next data set, the system named is thrombin. Particulars: literature; cited from earlier work.
The conditions of data set [6]: literature; cited from earlier work.
For data set [7] the following is noted: literature; cited from earlier work. This is another data set of the same source.

plasmin, sequence (P00747 581-810 limits assumed): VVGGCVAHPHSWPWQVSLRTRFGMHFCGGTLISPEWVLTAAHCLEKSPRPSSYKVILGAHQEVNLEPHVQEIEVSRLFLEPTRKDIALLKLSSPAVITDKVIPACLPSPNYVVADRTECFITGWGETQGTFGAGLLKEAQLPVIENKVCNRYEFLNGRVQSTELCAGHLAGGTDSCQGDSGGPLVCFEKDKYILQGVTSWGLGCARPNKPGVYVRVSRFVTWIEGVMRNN
plasmin, sequence (P00747 97-580 limits assumed): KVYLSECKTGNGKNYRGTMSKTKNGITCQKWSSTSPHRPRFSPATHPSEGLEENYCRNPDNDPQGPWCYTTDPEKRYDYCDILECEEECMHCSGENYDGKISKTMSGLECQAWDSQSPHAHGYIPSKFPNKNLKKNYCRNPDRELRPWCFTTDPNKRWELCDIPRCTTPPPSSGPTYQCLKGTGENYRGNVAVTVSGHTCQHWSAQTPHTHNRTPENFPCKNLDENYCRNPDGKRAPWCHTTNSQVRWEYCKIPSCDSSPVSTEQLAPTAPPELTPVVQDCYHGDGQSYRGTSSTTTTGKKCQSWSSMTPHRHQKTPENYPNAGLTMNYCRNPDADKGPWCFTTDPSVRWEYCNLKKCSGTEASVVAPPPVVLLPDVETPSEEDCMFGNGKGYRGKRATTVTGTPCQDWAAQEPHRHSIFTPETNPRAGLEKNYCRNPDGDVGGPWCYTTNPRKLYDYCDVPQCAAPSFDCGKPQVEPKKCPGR

The IC50 is the concentration needed to halve the response being measured. In general, ED50 refers to the midpoint of the dose-response relation. As usually defined, the Ki is the dissociation constant of the complex between target and ligand, obtained from inhibition or displacement. A high value points to lower affinity. Take `N=C(N)N1CCCC(C[C@@H](C=O)NC(=O)CN2CCC[C@H](NS(=O)(=O)Cc3ccccc3)C2=O)C1` (single isomer, unassigned) [Isomer B]: the IC50 was more than 25000 nM against plasmin and 0.9 nM on human alpha-thrombin [5]. Besides, the “prolongation of the APTT” value in data set [1] and in data set [2] (human plasma) was “prolonged the APTT in a dose dependent manner” throughout. Moreover, the “concentration which caused a doubling of the control clotting time (APTT)” value in [2] (citrated human plasma, control clotting time 29 seconds, mean of two independent determinations) was found to be 9.1 µM. Besides, the “Incidence of Occlusion” value in data set [3] (0.3 mg/kg) is reported as 6/6; in data set [3] (1.0 mg/kg), 4/6; in [3] (3.0 mg/kg, p ≤ 0.05 from saline control by Fishers test) it was 0/6. The ED50 in data set [3] was found to be 1.4 mg/kg. Moreover, the Ki at human alpha-thrombin [4] was 0.318 nM.
As to `N=C(N)c1ccc(CC(=O)C(=O)O)cc1` [APPA, 4-amidinophenylpyruvic acid], the “selectivity of thrombin inhibition” value with thrombin is “non-selective, inhibiting trypsin, plasmin and kallikrein”. The toxicity entry in [6] is on record as “low toxicity”. Moreover, in data set [7], the pharmacokinetics result was “favourable pharmacokinetics”.
`CC1CNc2c(cccc2S(=O)(=O)N[C@@H](CCCNC(=N)N)C(=O)N2CC[C@@H](C)C[C@@H]2C(=O)O)C1` (stereo partly drawn) [Argatroban, 2R,4R-4-methyl-1-[N-2-(3-methyl-1,2,3,4-tetrahydro-8-quinolinesulfonyl)-L-argininal]-2-piperdinecarboxylic acid, reference compound]: the ED50 in data set [3] (dose that prevents complete thrombotic occlusion in 50% of animals tested) is 3.8 mg/kg.
Turning to `CS(=O)(=O)O.CS(=O)(=O)O.N=C(N)Nc1ccc(C(=O)Oc2ccc3cc(C(=N)N)ccc3c2)cc1` [FUT 175, 6-amidino-2-naphthyl-4-guanidinobenzoate dimethanesulfonate], the “selectivity of thrombin inhibition” value in the data set on thrombin is “non-selective”.
